Data: ChEMBL document CHEMBL3044788, “α-(Substituted-phenoxyacetoxy)-α-heterocyclylmethylphosphonates: synthesis, herbicidal activity, inhibition on pyruvate dehydrogenase complex (PDHc), and application as postemergent herbicide against broadleaf weeds” (J Agric Food Chem, 2013)
pIC50: −log10 of the molar value. “And” between values parts separate entries of the source, which are not always exact repeats. Equal entries are not always repeated.

What was measured:
[1] = biological target: T1, Pyruvate dehydrogenase complex (Pisum sativum, UniProt P52902+P52904); assay: Inhibition of Pisum sativum (pea) PDHc by spectrophotometric assay; assay type: protein-complex assay, Lathyrus oleraceus
T1 sequence (P52902 whole entry): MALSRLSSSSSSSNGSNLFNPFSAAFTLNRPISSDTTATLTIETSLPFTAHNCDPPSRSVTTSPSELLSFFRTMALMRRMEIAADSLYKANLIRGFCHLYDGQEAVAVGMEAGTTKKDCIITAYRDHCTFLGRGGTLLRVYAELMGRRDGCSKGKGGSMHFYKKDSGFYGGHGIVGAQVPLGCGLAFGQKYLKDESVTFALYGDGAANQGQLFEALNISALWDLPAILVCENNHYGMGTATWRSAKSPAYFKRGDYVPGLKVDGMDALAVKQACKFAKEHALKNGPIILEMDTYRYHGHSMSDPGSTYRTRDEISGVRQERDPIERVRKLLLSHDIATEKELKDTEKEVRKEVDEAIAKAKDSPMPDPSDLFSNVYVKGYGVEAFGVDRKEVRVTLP
T1 sequence (P52904 whole entry): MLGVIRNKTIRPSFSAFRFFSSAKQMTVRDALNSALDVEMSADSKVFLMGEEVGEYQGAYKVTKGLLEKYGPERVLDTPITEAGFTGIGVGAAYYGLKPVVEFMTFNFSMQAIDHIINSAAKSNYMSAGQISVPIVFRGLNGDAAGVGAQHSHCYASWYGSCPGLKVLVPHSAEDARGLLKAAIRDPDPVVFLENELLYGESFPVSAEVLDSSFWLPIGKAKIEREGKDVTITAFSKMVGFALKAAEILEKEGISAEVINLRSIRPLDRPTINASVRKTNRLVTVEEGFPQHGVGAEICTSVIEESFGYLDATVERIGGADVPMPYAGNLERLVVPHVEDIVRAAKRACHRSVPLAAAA

[2] = test system: Brassica rapa subsp. oleifera; assay: Herbicidal activity against Brassica rapa subsp. oleifera assessed as inhibition of rape root growth; assay type: functional, organism-based
[3] = test system: Brassica juncea; assay: Herbicidal activity against two to three-leaf stage Brassica juncea assessed as inhibition of plant growth at 450 g/ha in greenhouse by post-emergence herbicidal activity assay; assay type: functional; details: read-out: GI
[4] = test system: Echinochloa crus-galli; assay: Herbicidal activity against 2 to 3 leaf stage Echinochloa crus-galli (barnyard grass) assessed as inhibition of plant growth at 450 g/ha in greenhouse by postemergence herbicidal activity assay; assay type: functional; details: for inhibition of growth at 450 g/ha: Echinochloa crus-galli, post-emergence, read-out: GI
[5] = test system: Oryza sativa; assay: Herbicidal activity against two to three-leaf stage Oryza sativa (rice) assessed as inhibition of plant growth at 450 g/ha in greenhouse by postemergence herbicidal activity assay; assay type: organism-based; details: in vivo, other
[6] = Inhibition of Oryza sativa (rice) PDHc by spectrophotometric assay
[7] = test system: Amaranthus retroflexus; assay: Herbicidal activity against 2 to 3 leaf stage Amaranthus retroflexus assessed as inhibition of plant growth at 450 g/ha in greenhouse by postemergence herbicidal activity assay; assay type: functional; details: post-emergence, read-out: GI
[8] = test system: Brassica rapa subsp. oleifera; assay: Herbicidal activity against Brassica rapa subsp. oleifera assessed as inhibition of rape root growth at 450 g/ha by pre-emergence herbicidal activity assay; assay type: functional; details: read-out: GI
[9] = test system: Pisum sativum; assay: Herbicidal activity against 2 to 3 leaf stage Pisum sativum assessed as inhibition of plant growth at 450 g/ha in greenhouse by postemergence herbicidal activity assay; assay type: functional; details: Lathyrus oleraceus, post-emergence; read-out: GI
[10] = test system: Brassica rapa subsp. oleifera; assay: Herbicidal activity against Brassica rapa subsp. oleifera assessed as inhibition of rape root growth at 450 g/ha by postemergence herbicidal activity assay; assay type: functional; details: post-emergence, read-out: GI
[11] = test system: Abutilon theophrasti; assay: Herbicidal activity against two to three-leaf stage Abutilon theophrasti (velvetleaf) assessed as inhibition of plant growth at 150 g/ha in greenhouse by post-emergence herbicidal activity assay; assay type: functional; details: read-out: GI
[12] = test system: Amaranthus retroflexus; assay: Herbicidal activity against 2 to 3 leaf stage Amaranthus retroflexus assessed as inhibition of plant growth at 150 g/ha in greenhouse by postemergence herbicidal activity assay; assay type: functional; details: post-emergence, read-out: GI
[13] = test system: Brassica rapa subsp. oleifera; assay: Herbicidal activity against two to three-leaf stage Brassica rapa subsp. oleifera assessed as inhibition of plant growth at 150 g/ha in greenhouse by postemergence herbicidal activity assay; assay type: functional; details: post-emergence, read-out: GI
[14] = test system: Eclipta prostrata; assay: Herbicidal activity against two to three-leaf stage Eclipta prostrata assessed as inhibition of plant growth at 150 g/ha in greenhouse by post-emergence herbicidal activity assay; assay type: functional; details: read-out: GI
[15] = test system: Brassica rapa subsp. oleifera; assay: Herbicidal activity against two to three-leaf stage Brassica rapa subsp. oleifera assessed as inhibition of plant growth at 450 g/ha in greenhouse by postemergence herbicidal activity assay; assay type: functional; details: post-emergence, read-out: GI
[16] = test system: Abutilon theophrasti; assay: Herbicidal activity against two to three-leaf stage Abutilon theophrasti (velvetleaf) assessed as inhibition of plant growth at 450 g/ha in greenhouse by post-emergence herbicidal activity assay; assay type: functional; details: read-out: GI
[17] = test system: Eclipta prostrata; assay: Herbicidal activity against two to three-leaf stage Eclipta prostrata assessed as inhibition of plant growth at 450 g/ha in greenhouse by post-emergence herbicidal activity assay; assay type: functional; details: read-out: GI

Row | Structure (SMILES) | pIC50 [1] | pIC50 [2] | inhibition of growth at 450 g/ha [3] [%] | inhibition of growth at 450 g/ha [4] [%] | growth inhibition (GI) [5] [%] | pIC50 [6] | inhibition of growth at 450 g/ha [7] [%] | inhibition of growth at 450 g/ha [8] [%] | inhibition of growth at 450 g/ha [9] [%] | inhibition of growth at 450 g/ha [10] [%] | inhibition of growth at 150 g/ha [11] [%] | inhibition of growth at 150 g/ha [12] [%] | inhibition of growth at 150 g/ha [13] [%] | inhibition of growth at 150 g/ha [14] [%] | inhibition of growth at 450 g/ha [15] [%] | inhibition of growth at 450 g/ha [16] [%] | inhibition of growth at 450 g/ha [17] [%] | growth inhibition (GI) [4]
1 | COP(=O)([O-])C(OC(=O)COc1ccc(Cl)cc1Cl)c1ccco1.[Na+] (stereo not given) | 5.16 | 7.40 | 92.5 | 50 | 45 | 4.39 | 100 | 96 | 98 | 95 | – | – | – | – | – | – | – | –
2 | COP(=O)(OC)C(OC(=O)COc1ccc(Cl)cc1)c1cccs1 (stereo not given) | – | – | – | – | – | – | 80 | – | – | – | 70 | 70 | 70 | 70 | 90 | 85 | 30 | –
3 | COP(=O)(OC)C(OC(=O)COc1ccc(Cl)c(C)c1)c1cccs1 (stereo not given) | – | – | – | – | – | – | 60 | – | – | – | 0 | 50 | 0 | 50 | 60 | 60 | 70 | –
4 | COP(=O)([O-])COC(=O)COc1ccc(Cl)cc1Cl.[Na+] | – | – | 93 | 10 | 12 | 4.54 | 92 | – | 52.5 | – | – | – | – | – | – | – | – | –
5 | CCC(OC(=O)COc1ccc(Cl)cc1Cl)P(=O)([O-])OC.[Na+] (stereo not given) | – | – | 94.5 | 30 | 27 | 4.72 | 97 | – | 90 | – | – | – | – | – | – | – | – | –
6 | CCCC(OC(=O)COc1ccc(Cl)cc1Cl)P(=O)([O-])OC.[Na+] (stereo not given) | – | – | 96 | 45 | 22 | 5.49 | 97 | – | 77.5 | – | – | – | – | – | – | – | – | –
7 | COP(=O)([O-])C(C)OC(=O)COc1ccc(Cl)cc1Cl.[Na+] (stereo not given) | – | – | 100 | 50 | 27 | 6.54 | 98 | – | 71.5 | – | – | – | – | – | – | – | – | –
8 | COP(=O)(OC)C(OC(=O)COc1cccc(C)c1C)c1cccs1 (stereo not given) | – | – | – | – | – | – | 40 | – | – | – | 0 | 40 | 0 | 0 | 0 | 0 | 70 | –
9 | COP(=O)(OC)C(OC(=O)COc1ccc(Br)cc1)c1cccs1 (stereo not given) | – | – | – | – | – | – | 60 | – | – | – | 50 | 50 | 70 | 60 | 75 | 70 | 60 | –
10 | COP(=O)(OC)C(OC(=O)COc1ccccc1Cl)c1cccs1 (stereo not given) | – | – | – | – | – | – | 50 | – | – | – | 0 | 0 | 0 | 0 | 30 | 40 | 85 | –
11 | COP(=O)(OC)C(OC(=O)COc1cccc(C(F)(F)F)c1)c1ccccn1 (stereo not given) | < 2.64 | – | 60 | 0 | 0 | – | 77.5 | – | 0 | – | – | – | – | – | – | – | – | –
12 | COP(=O)(OC)C(O)c1ccco1 (stereo not given) | – | < 2.33 | – | – | – | – | – | 25 | – | 20 | – | – | – | – | – | – | – | –
13 | COP(=O)(OC)C(=O)c1ccco1 | – | 3.63 | – | – | – | – | – | 56 | – | 50 | – | – | – | – | – | – | – | –
14 | COP(=O)(O)C(O)c1ccco1 (stereo not given) | < 2.33 | < 2.33 | – | 17.5 | – | – | 0 | 23 | 0 | 20 | – | – | – | – | – | – | – | –
15 | COP(=O)(O)C(=O)c1ccco1 | 3.41 | 2.49 | – | 25 | – | – | 25 | 20 | 35 | 30 | – | – | – | – | – | – | – | –
16 | O=C(O)COc1ccc(Cl)cc1Cl [2,4-DICHLOROPHENOXYACETIC ACID] | < 2.34 | 7.25 | 100 | 35 | – | – | 100 | 98 | 97.5 | 90 | 93 | 92 | 92.5 | 90 | – | – | – | –
17 | COP(=O)(OC)C(C)OC(=O)COc1ccc(Cl)cc1Cl (stereo not given) [CLACYFOS] | – | 7.46 | 100 | – | 0 | 3.06 | 100 | 96 | 97.5 | 98 | 95 | 91 | 92 | 90 | 100 | 100 | 0 | 35% and 100%
18 | COP(=O)(OC)C(C)O (stereo not given) [DIMETHYL 1-HYDROXYETHYLPHOSPHONATE] | – | 2.62 | – | – | – | – | – | 36 | – | 30 | – | – | – | – | – | – | – | –
19 | COP(=O)(OC)C(C)=O [DIMETHYL ACETYLPHOSPHONATE] | – | 2.73 | – | – | – | – | – | 34 | – | 45 | – | – | – | – | – | – | – | –
20 | COP(=O)(O)C(C)=O [SODIUM METHYL ACETYLPHOSPHONATE] | 4.15 | – | – | – | – | – | – | – | – | – | – | – | – | – | – | – | – | –
